Measurements from PMC4052943 (BioMed Research International, 2014).
Where “and” joins values, the source holds several entries; their conditions need not be identical. Equal values may be shown once. Read-outs that look alike come from different tables or passages of the source.

Tests used:
[1] = system: Salmonella typhimurium TA98; conditions: TA 98, no S9
Experimental: (§1) In the preincubation experiment, test compounds and mutagen, each having a volume of 0.1 mL of varying concentrations, were preincubated at 37°C for 30 min and then 0.1 mL of 1 × 10^7 CFU/mL density of the bacterial culture was added, followed by the addition of 2.5 mL of top agar at 45°C (containing 0.5% NaCl and 0.6% agar) supplemented with 0.5 mM histidine-biotin. […] The combined solutions were vortexed and poured onto minimal glucose plates (40% glucose solution and Vogel Bonner medium). The plates were incubated at 37°C for 48 h and the numbers of histidine-independent revertants colonies were scored.
(§2) Survival of the bacteria was routinely monitored for each experiment. Parallel controls were run with compounds alone at all concentrations to test the possible toxicity. The concentrations of the test samples for investigating the antimutagenicity were 50, 100, 200, and 500 μM. […] All the test samples and mutagens were dissolved in DMSO (final conc., 0.01%). […] Plates were set up in triplicate for each concentration and the entire experiment was repeated three times. Inhibition of mutagenicity was expressed as percentage decrease of reverse mutation and calculated as (1) Percent inhibition=[(a−b)/(a−c)]×100, where a = number of histidine revertants induced by mutagen, b = number of histidine revertants induced by mutagen in the presence of test compound, and c = number of revertants induced in negative control.

[2] = system: Salmonella typhimurium TA100; conditions: TA 100, no S9
Experimental: as §1, §2

[3] = system: Salmonella typhimurium TA97a; conditions: TA 97a, no S9
Experimental: as §1, §2

[4] = system: Salmonella typhimurium TA102; conditions: TA 102, no S9
Experimental: as §1, §2

[5] = positive control MMS 1.5 μg (Table 8)

Structure (SMILES) | Number of His+ revertants colonies/plate ([1]; positive control MMS 1.0 μg) [colonies/plate] | Number of His+ revertants colonies/plate [1, 5] [colonies/plate] | Number of His+ revertants colonies/plate ([2]; positive control MMS 1.0 μg) [colonies/plate] | Number of His+ revertants colonies/plate [2, 5] [colonies/plate] | Number of His+ revertants colonies/plate ([3]; positive control MMS 1.0 μg) | Number of His+ revertants colonies/plate [3, 5] [colonies/plate] | Number of His+ revertants colonies/plate ([4]; positive control MMS 1.0 μg) [colonies/plate] | Number of His+ revertants colonies/plate [4, 5] [colonies/plate] | Number of His+ revertants colonies/plate ([1]; positive control NaN3 1.5 μg) [colonies/plate] | Number of His+ revertants colonies/plate ([2]; positive control NaN3 1.5 μg) [colonies/plate] | Number of His+ revertants colonies/plate ([3]; positive control NaN3 1.5 μg) [colonies/plate] | Number of His+ revertants colonies/plate ([4]; positive control NaN3 1.5 μg)
COS(C)(=O)=O [MMS, Methyl methanesulfonate, reference compound] | 53.7 ± 1.5 | 53.7 ± 1.5 | 963.0 ± 11.4 | 963.0 ± 11.4 | 449 colonies/plate and 449.7 ± 7.2 colonies/plate | 449.7 ± 7.2 | 1237.0 ± 14.5 | 1237.0 ± 14.5 | – | – | – | –
[N-]=[N+]=[N-].[Na+] [NaN3, Sodium azide, reference compound] | – | – | – | – | – | – | – | – | 52.3 ± 1.8 | 361.3 ± 11.0 | 256.0 ± 11.7 | 370.0 ± 9.0 colonies/plate and 355.0 ± 15.5 colonies/plate
